Common to all, as to experiment: DTP human tumour cell line panel, 48 h
Assay [1] relates to UACC-257.
Assay [2] concerns SN12C.
Assay [3] has as its system CAKI-1.
The subject of assay [4] is HOP-92.
The subject of assay [5] is A549.
Assay [6] concerns PC-3.
Assay [7] has as its system DMS-273.
Assay [8] relates to SNB-19.
Assay [9] deals with MDA-MB-231.
Assay [10] deals with HCT-15.
In assay [11] the test system is HCT-116.
Assay [12] deals with SF-539.
In assay [13] the test system is K562.
Assay [14] concerns NCI-H23.
Assay [15] deals with 786-0.
Assay [16] relates to SK-MEL-5.
Assay [17] deals with IGROV-1.
The subject of assay [18] is MCF7.
The subject of assay [19] is BT-549.
In assay [20] the test system is Hs-578T.

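Each compound was tested at five concentrations against cells in 96-well plates for 48 hours. Abbreviation: GI50, concentration required for 50% inhibition of growth.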 Active and inactive are the calls of the source. Rule as the data show it: active = GI50 up to about 1.1 µM and inactive = higher.

With `Cc1c(CCCl)c(Cl)n2c(nc3ccccc32)c1C#N`, the GI50 (commonly the concentration at which growth is held to half of that of the control) in [1] is 1.44 µM (inactive); in [2] it was 0.423 µM (active); in [3], 0.597 µM (active); in assay [4], 1.15 µM (inactive); in assay [5] it was 1.4 µM (inactive); in assay [6], 1.02 µM (active). The GI50 in assay [7] is 0.457 µM (active); in assay [8] it was 1.89 µM (inactive); in [9], 1.32 µM (inactive); in assay [10] it was 0.644 µM; in assay [11], 0.229 µM (active); in assay [12], 0.681 µM (active). Also, the concentration for 50% growth inhibition (GI50) in [13] was 0.321 µM (active); in [14], 0.904 µM (active); in [15] it was 0.463 µM (active); in assay [16], 0.891 µM (active); in [17] it was 1.62 µM (inactive); in assay [18], 0.653 µM (active). Moreover, in assay [19], the GI50 was 2.21 µM (inactive).

Regarding `CN(C)CCNC(=O)c1cccc2ccc(-c3ccc(O)cc3)nc12`, the GI50 in assay [1] was 2.61 µM (inactive); in [2], 2.16 µM (inactive); in assay [3], 1.19 µM (inactive); in assay [4], 3.03 µM (inactive); in assay [5], 0.92 µM (active); in assay [6] it was 2.37 µM (inactive). The GI50 is 0.743 µM (active) in [7]; 1.31 µM (inactive) in assay [8]; 0.959 µM (active) in assay [9]; 2.66 µM (inactive) in assay [20]; 2.75 µM in assay [10]; 0.698 µM (active) in assay [11]. The GI50 is 2.75 µM (inactive) in assay [12]; 0.839 µM (active) in [13]; 3.09 µM (inactive) in assay [14]; 2.63 µM (inactive) in [15]; 1.25 µM (inactive) in assay [16]; 2.47 µM (inactive) in assay [17]. In addition, the 50% growth inhibitory concentration (GI50) in assay [18] is 0.859 µM (active); in assay [19] it was 6.82 µM (inactive).

For `COc1ccc(N2C(=O)[C@H]3[C@H]4CC(C(C)(C)C)CC[C@H]4c4c(n(C)c5ccccc45)[C@H]3C2=O)cc1` (some centres undefined), the GI50 in assay [1] is > 100 µM (inactive); in assay [2], > 56.2 µM (inactive); in assay [3] it was > 100 µM (inactive); in assay [4], > 100 µM (inactive); in assay [5], > 100 µM (inactive); in assay [6], > 100 µM (inactive). For the same compound, the GI50 in assay [7] was > 100 µM (inactive); in assay [8], > 100 µM (inactive); in [9] it was > 100 µM (inactive); in assay [20], 56.1 µM (inactive); in [10] it was 5.62 µM; in assay [11], > 100 µM (inactive). The GI50 in assay [12] is 32.4 µM (inactive); in assay [13] it was > 95.3 µM (inactive); in assay [14] it was > 100 µM (inactive); in [15], > 100 µM (inactive); in [16], 4.65 µM (inactive); in [17], > 100 µM (inactive). In addition, the GI50 was > 46.5 µM (inactive) in [18] and > 100 µM (inactive) in [19].

Turning to `COc1ccc(C2=C[C@]3(O)CCCN3C[C@@H]2c2ccc(OC)c(OC)c2)cc1`, the GI50 in assay [1], in [2], in assay [3], in [4], in [5] and in [7] was < 0.0001 µM (active) each time. For the same compound, the GI50 in assay [8] is < 0.0001 µM (active); in [10], less than 0.0001 µM; in [11], < 0.0001 µM (active); in assay [12], < 0.0001 µM (active); in assay [13] it was < 0.0001 µM (active); in [14], < 0.0001 µM (active). Further, the GI50 in assay [15], in assay [16] and in [17] was < 0.0001 µM (active) throughout.

For the compound `Cc1cc2c3ccccc3n(C)c2c2c1C(=O)C=CC2=O`, the GI50 in assay [1] was 13.2 µM (inactive); in assay [2], 18.1 µM (inactive); in assay [3], 14.3 µM (inactive); in assay [4] it was 12.1 µM (inactive); in assay [5] it was 40.4 µM (inactive); in assay [6], 9.91 µM (inactive). In addition, the GI50 in assay [7] was 13.3 µM (inactive); in [8], 28.5 µM (inactive); in [9], 15.3 µM (inactive); in assay [20] it was 22.3 µM (inactive); in assay [10], 9.33 µM; in [11], 20 µM (inactive). Further, the GI50 in assay [12] is 21.6 µM (inactive); in [13], 5.33 µM (inactive); in assay [14], 12.4 µM (inactive); in assay [15], 5.78 µM (inactive); in assay [16] it was 27.4 µM (inactive); in assay [17] it was 16.8 µM (inactive). In addition, the GI50 in assay [18] is 4.3 µM (inactive); in assay [19] it was 13.9 µM (inactive).

As for `CN(C)NC1=C([N+](=O)[O-])C=NN(c2ccccc2)C1`, the GI50 in assay [1] is 1.74 µM (inactive); in assay [2] it was 1.76 µM (inactive); in [3] it was 1.95 µM (inactive); in [4], 2.02 µM (inactive); in assay [5], 2.1 µM (inactive); in assay [7], 1.75 µM (inactive). For the same compound, the GI50 was 2.54 µM (inactive) in assay [8]; 1.55 µM in assay [10]; 1.82 µM (inactive) in assay [11]; 1.89 µM (inactive) in assay [12]; 2.44 µM (inactive) in assay [13]; 1.87 µM (inactive) in [14]. For the same compound, the GI50 is 1.77 µM (inactive) in assay [15], 2.56 µM (inactive) in [16] and 2.19 µM (inactive) in assay [17].

As for `CN(C)c1nc(N(C)C)nc(N(C)C)n1` [ALTRETAMINE], the GI50 in assay [1] is > 150 µM (inactive); in assay [2], > 150 µM (inactive); in assay [3], 130 µM (inactive); in assay [4] it was 147 µM (inactive); in assay [5], > 147 µM (inactive); in [6], > 150 µM (inactive). For the same compound, the GI50 in assay [7] was > 140 µM (inactive); in assay [8] it was > 144 µM (inactive); in assay [9], > 150 µM (inactive); in assay [20], > 150 µM (inactive); in assay [10] it was greater than 122 µM; in [11], > 150 µM (inactive). The GI50 is > 143 µM (inactive) in assay [12]; > 148 µM (inactive) in [13]; > 143 µM (inactive) in assay [14]; > 150 µM (inactive) in assay [15]; 136 µM (inactive) in assay [16]; > 123 µM (inactive) in [17]. Besides, the GI50 in assay [18] and in [19] was > 150 µM (inactive) each time.

Values taken from ChEMBL document CHEMBL1201862, “PubChem BioAssay data set” (2004).
